Reference: article PMC8286840, “Identifying SARS-CoV-2 antiviral compounds by screening for small molecule inhibitors of Nsp3 papain-like protease” (Biochemical Journal, 2021)
Where a name gives a salt, the structure may show the parent alone. Read-outs that look alike come from different tables or passages of the source.

Columns and labels:
[1] = molecular target: T1, SARS-CoV-2 PLpro (nsp3 1564–1878) (Severe acute respiratory syndrome coronavirus 2, UniProt P0DTD1); assay: biochemical; parameters: FRET-quenched peptide (Pro3) cleavage by PLpro, 10 min pre-incubation, slope over 20 min, normalised to no-compound control; conditions: high concentration screen, read-out: % of control remaining
[2] = molecular target: T1, SARS-CoV-2 PLpro (nsp3 1564–1878); assay: biochemical; parameters: FRET-quenched peptide (Pro3) cleavage by PLpro, 10 min pre-incubation, slope over 20 min, normalised to no-compound control; conditions: low concentration screen, read-out: % of control remaining

## COc1nc(OCc2cccc(-c3ccccc3)c2C)ccc1CNCCN [N-deacetylated BMS-202]
[1]; Well no.=8458
  remaining activity at 3.75 µM: 100%
[2]; Well no.=8458
  remaining activity at 1.25 µM: 102%

## C[N+](C)(C)[C@@H](Cc1c[nH]c(=S)[nH]1)C(=O)[O-] [Ergothioneine]
[1]; Well no.=1612
  remaining activity at 3.75 µM: 98.8%
[2]; Well no.=1612
  remaining activity at 1.25 µM: 100%

## CNC(=O)c1ccc(N2C(=S)N(c3ccc(C#N)c(C(F)(F)F)c3)C(=O)C2(C)C)cc1F [MDV3100 (Enzalutamide)]
[1]; Well no.=4759
  remaining activity at 3.75 µM: 104%
[2]; Well no.=4759
  remaining activity at 1.25 µM: 102%

## CC(=O)NS(=O)(=O)c1ccc(N)cc1 [Sulfacetamide Sodium]
[1]; Well no.=4740
  remaining activity at 3.75 µM: 106%
[2]; Well no.=4740
  remaining activity at 1.25 µM: 106%

## COc1cc(NS(=O)(=O)c2ccc(N)cc2)ncn1 [Sulfamonomethoxine]
[1]; Well no.=7544
  remaining activity at 3.75 µM: 98.5%
[2]; Well no.=7544
  remaining activity at 1.25 µM: 98.1%

## CSc1nc2ccc3nc(NC(=O)C(c4ccccc4)c4ccccc4)sc3c2s1 [Gue1654]
[1]; Well no.=5404
  remaining activity at 3.75 µM: 92.4%
[2]; Well no.=5404
  remaining activity at 1.25 µM: 90.4%

## O=[N+]([O-])c1ccc(S(=O)(=O)NCc2ccccc2)c([N+](=O)[O-])c1 [N-Benzyl-2,4-dinitrobenzenesulfonamide]
[1]; Well no.=6125
  remaining activity at 3.75 µM: 102%
[2]; Well no.=6125
  remaining activity at 1.25 µM: 98.4%

## Cc1c(COc2cc(OCc3cccc(C#N)c3)c(CN3C[C@H](O)C[C@@H]3C(=O)O)cc2Cl)cccc1-c1ccc2c(c1)OCCO2 [BMS-1166]
[1]; Well no.=8310
  remaining activity at 3.75 µM: 96.4%
[2]; Well no.=8310
  remaining activity at 1.25 µM: 96.7%

## COc1cc(SC)ccc1C(=O)N1CCC(Cc2ccccc2)CC1 [p38 MAP Kinase Inhibitor VI, JX401]
[1]; Well no.=2529
  remaining activity at 3.75 µM: 105%
[2]; Well no.=2529
  remaining activity at 1.25 µM: 101%

## COc1cc2c(cc1O)CC[C@@H]1[C@@H]2CC[C@]2(C)[C@@H](O)CC[C@@H]12 [2-Methoxyestradiol]
[1]; Well no.=836
  remaining activity at 3.75 µM: 102%
[1]; Well no.=6292
  remaining activity at 3.75 µM: 93.3%
[2]; Well no.=836
  remaining activity at 1.25 µM: 105%
[2]; Well no.=6292
  remaining activity at 1.25 µM: 95.9%

## CCc1nn(CCCN2CCN(c3cccc(Cl)c3)CC2)c(=O)n1CCOc1ccccc1 [Nefazodone (hydrochloride)]
[1]; Well no.=6765
  remaining activity at 3.75 µM: 92.8%
[2]; Well no.=6765
  remaining activity at 1.25 µM: 97.2%

## O=C(O)CCCCCCCCCCCCCCC(=O)O [Hexadecanedioic acid]
[1]; Well no.=6685
  remaining activity at 3.75 µM: 106%
[2]; Well no.=6685
  remaining activity at 1.25 µM: 104%

## COc1ccc2c(c1OC)C(=O)O[C@H]2[C@@H]1c2cc3c(cc2CCN1C)OCO3 [(+)-Hydrastine]
[1]; Well no.=614
  remaining activity at 3.75 µM: 97.7%
[2]; Well no.=614
  remaining activity at 1.25 µM: 96.4%

## CC(C)(S)[C@H](N)C(=O)O [L-Penicillamine]
[1]; Well no.=3332
  remaining activity at 3.75 µM: 99.5%
[2]; Well no.=3332
  remaining activity at 1.25 µM: 100%

## COc1cccc2c1[C@@H]1CN(CCCCn3c(=O)[nH]c4c(sc5ncc(-c6ccccc6)nc54)c3=O)C[C@@H]1CO2 [Fiduxosin hydrochloride]
[1]; Well no.=611
  remaining activity at 3.75 µM: 97.4%
[2]; Well no.=611
  remaining activity at 1.25 µM: 97.2%

## O=C(O)CCNC(=O)c1ccc(/N=N/c2ccc(O)c(C(=O)O)c2)cc1 [Balsalazide]
[1]; Well no.=7362
  remaining activity at 3.75 µM: 92.1%
[2]; Well no.=7362
  remaining activity at 1.25 µM: 96.6%

## Cn1cc(C2=C(c3cn(CCCSC(=N)N)c4ccccc34)C(=O)NC2=O)c2ccccc21 [Ro 31-8220 mesylate - 3-[3-[2,5-Dihydro-4-(1-methyl-1H-indol-3-yl)-2,5-dioxo-1H-pyrrol-3-yl]-1H-indol-1-yl]propyl carbamimidothioic acid ester mesylate]
[1]; Well no.=2482
  remaining activity at 3.75 µM: 102%
[2]; Well no.=2482
  remaining activity at 1.25 µM: 104%

## COc1ccc(C(=O)NCc2ccc(OCCN(C)C)cc2)cc1OC [Itopride]
[1]; Well no.=2226
  remaining activity at 3.75 µM: 88.2%
[2]; Well no.=2226
  remaining activity at 1.25 µM: 87.9%

## O=c1ccn([C@@H]2O[C@H](CO)[C@@H](O)[C@@H]2O)c(=O)[nH]1 [1-_beta-_D-_Arabinofuranosylurac_il]
[1]; Well no.=8887
  remaining activity at 3.75 µM: 94.3%
[2]; Well no.=8887
  remaining activity at 1.25 µM: 95.2%

## CNC[C@H](O)c1ccc(O)c(O)c1 [(-)-Epinephrine bitartrate]
[1]; Well no.=509
  remaining activity at 3.75 µM: 99.3%
[2]; Well no.=509
  remaining activity at 1.25 µM: 102%

## O=S(=O)(c1ccccc1)c1cnc2c(N3CCNCC3)cccc2c1 [SB-742457]
[1]; Well no.=4839
  remaining activity at 3.75 µM: 104%
[1]; Well no.=7183
  remaining activity at 3.75 µM: 91.3%
[2]; Well no.=4839
  remaining activity at 1.25 µM: 98.1%
[2]; Well no.=7183
  remaining activity at 1.25 µM: 94.6%

## COc1ccc(C[C@H]2c3cc(OC)c(OC)cc3CC[N+]2(C)C)cc1OC [Laudanosine methiodide]
[1]; Well no.=3589
  remaining activity at 3.75 µM: 106%
[2]; Well no.=3589
  remaining activity at 1.25 µM: 103%

## CC1=C(C)C(=O)C(C(CCCCCC(=O)O)c2ccccc2)=C(C)C1=O (stereo not drawn) [Seratrodast]
[1]; Well no.=3857
  remaining activity at 3.75 µM: 102%
[1]; Well no.=7375
  remaining activity at 3.75 µM: 103%
[2]; Well no.=3857
  remaining activity at 1.25 µM: 98.1%
[2]; Well no.=7375
  remaining activity at 1.25 µM: 103%

## C[C@]12CC[C@H]3[C@@H](CC[C@@]45O[C@@H]4C(O)=C(C#N)C[C@]35C)[C@@H]1CC[C@@H]2O [Trilostane]
[1]; Well no.=4815
  remaining activity at 3.75 µM: 107%
[2]; Well no.=4815
  remaining activity at 1.25 µM: 101%

## CN(C/C=C/c1ccccc1)Cc1cccc2ccccc12 [Naftifine HCl]
[1]; Well no.=4983
  remaining activity at 3.75 µM: 96.2%
[2]; Well no.=4983
  remaining activity at 1.25 µM: 96.8%

## CC(=O)Oc1ccccc1C(=O)O [Acetylsalicylic acid]
[1]; Well no.=161
  remaining activity at 3.75 µM: 97.3%
[1]; Well no.=2067
  remaining activity at 3.75 µM: 103%
[2]; Well no.=161
  remaining activity at 1.25 µM: 101%
[2]; Well no.=2067
  remaining activity at 1.25 µM: 102%

## CC(C)NC(C)Cc1ccc(I)cc1 (stereo not drawn) [Iofetamine hydrochloride]
[1]; Well no.=1017
  remaining activity at 3.75 µM: 105%
[2]; Well no.=1017
  remaining activity at 1.25 µM: 100%

## CC[C@H]1OC(=O)[C@H](C)[C@@H](O[C@H]2C[C@@](C)(OC)[C@@H](O)[C@H](C)O2)[C@H](C)[C@@H](O[C@@H]2O[C@H](C)C[C@H](N(C)C)[C@H]2O)[C@](C)(O)C[C@@H](C)/C(=N\OCOCCOC)[C@H](C)[C@@H](O)[C@]1(C)O [Roxithromycin]
[1]; Well no.=2237
  remaining activity at 3.75 µM: 102%
[2]; Well no.=2237
  remaining activity at 1.25 µM: 101%

## CN1CCN(CCCN2c3ccccc3Sc3ccc(C(F)(F)F)cc32)CC1 [Trifluoperazine (dihydrochloride)]
[1]; Well no.=6369
  remaining activity at 3.75 µM: 105%
[2]; Well no.=6369
  remaining activity at 1.25 µM: 105%

## N#C/C(=C(/N)Sc1ccc(N)cc1)c1ccccc1C(F)(F)F [MEK1/2 Inhibitor]
[1]; Well no.=2562
  remaining activity at 3.75 µM: 96.8%
[2]; Well no.=2562
  remaining activity at 1.25 µM: 94.4%

## CCCc1c2oc(C(=O)O)cc(=O)c2cc2c(=O)cc(C(=O)O)n(CC)c12 [Nedocromil]
[1]; Well no.=6525
  remaining activity at 3.75 µM: 95%
[2]; Well no.=6525
  remaining activity at 1.25 µM: 95.3%

## CN1CCc2c(cc(O)c(O)c2Cl)C(c2cccc(Cl)c2)C1 (stereo not drawn) [SKF 83565 hydrobromide]
[1]; Well no.=1504
  remaining activity at 3.75 µM: 97.3%
[2]; Well no.=1504
  remaining activity at 1.25 µM: 94.9%
